Source: patent publication US11969402B2, “Compositions and methods for skin rejuvenation” (THE JOHNS HOPKINS UNIVERSITY, priority 2019, dated 2024)

Test system: human scalp keratinocytes
Assay: Retinoid levels (RA by LC-MS/MS, ROL and RE by HPLC-UV) in keratinocytes
Type: cell-based
Description: Small interference RNA (siRNA) transfection. Human ALDH1A2 (Santa Cruz Biotechnology, sc41443), ALDH1A3 (Santa Cruz Biotechnology, sc43611), TLR3 (Dharmacon, M-007745-00), TRIF (Santa Cruz Biotechnology, sc106845), IRF3 (Santa Cruz Biotechnology, sc35710), NF-κB (Santa Cruz Biotechnology, sc29410) and non-targeting control (scramble) siRNAs (Santa Cruz Biotechnology, sc37007 & Dharmacon, D-001210) were commercially provided. Human scalp keratinocytes (3×10^5 cells per well) in 12-well plates were transfected with 20 nM of siRNAs using Lipofectamine® RNAiMAX (Thermo Fisher Scientific, #13778150) following the manufacturer's directions. Poly (I:C) (0.1 μg per ml) was applied to transfected cells and incubated for 48 hrs. At the end of transfection period, cells were harvested to isolate protein to perform qRT-PCR, western blot, and RA mass spectrometry.
IL6 treatment. Recombinant human interleukin 6 (rhIL6) (R&D system; 206-IL-010) was treated into human scalp keratinocytes with dose-dependent manners (0, 10, 50, and 100 ng per ml) for 2 days. Cells were harvested and lysates were used for RA measurement.
Determination of Retinoid Levels. For in vitro samples, human scalp keratinocytes were incubated with 0.5 μg per ml of Poly (I:C) for 48 hrs or siRNAs-transfected cells were incubated with 0.1 μg per ml of Poly (I:C) for 48 hrs. For in vivo samples, skin was analyzed from wild-type and Tlr3^−/− unwounded and wounded skin where wound regions (center and edge area) were cut by scalpel. Human skin was analyzed for retinoids with and without CO2 laser treatment as described. All samples were frozen at collection and stored at −80° C. until extraction. For in vitro experiments, media and cell pellets were analyzed separately. For in vivo experiments, tissues were homogenized in saline. Extraction of retinoids was performed under yellow lights using a two-step liquid-liquid extraction that has been described in detail previously using 4,4-dimethyl-RA as an internal standard for RA and retinyl acetate as an internal standard for retinol and total retinyl ester^43-46. For the extraction of retinoids, 1 to 3 ml of 0.025 M KOH in ethanol was added to tissue homogenates (in vivo) or cell culture (in vitro) samples. Then 10 ml hexane (for in vivo tissue sample) or 5 ml hexane (for in vitro cell culture sample) was added to the aqueous ethanol phase. The samples were vortexed and centrifuged for 1 to 3 min at 1000 rpm in a Dynac centrifuge (Becton Dickinson) to facilitate phase separation and pellet precipitated protein. The hexane (top) phase containing nonpolar retinoids (ROL and RE) was removed. 4 M HCl (60-180 μl) was added to the remaining aqueous ethanol phase, samples were vortexed, and then polar retinoids (RA) were removed by extraction with a second 5-10 ml aliquot of hexane as described above. […]
Levels of RA were determined by liquid chromatography-multistage tandem mass spectrometry (LC-MRM^3) which is an LC-MS/MS method utilizing two distinct fragmentation events for enhanced selectivity^43. RA was measured using a Shimadzu Prominence UFLC XR liquid chromatography system (Shimadzu, Columbia, MD) coupled to an AB Sciex 5500 or 6500+ QTRAP hybrid triple quadrupole mass spectrometer (AB Sciex, Framingham, MA) using atmospheric pressure chemical ionization (APCI) operated in positive ion mode as previously described^43. […]

Question: With “Polyinosinic-polycytidylic acid [Poly (I:C)]” as the substance, how does the “Poly (I:C)-induced RA accumulation” value (TLR3 siRNA-transfected human keratinocytes, 0.1 μg per ml, 48 hrs) read?
Answer: The value was “dependent on TLR3”.

Question: And the RA synthesis (human keratinocytes transfected with MDA5- or RIG-I-siRNA)?
Answer: The RA synthesis was “still induce RA synthesis”.

Question: And the “retinol (ROL) and retinyl ester (RE) quantities” value (human keratinocytes treated with Poly (I:C))?
Answer: The value was “not modified”.

Question: And the RA abundance (human keratinocytes, cell lysates and culture media, 0.5 μg per ml, 48 hrs)?
Answer: The RA abundance was “markedly increased”.
